Earlier results in US20010006686A1, “INFLAMMATORY MEDIATION OBTAINED FROM ATRACTYLODES LANCEA” (priority 1999, published 2001).

Target: T1, cyclooxygenase-1 (Ovis aries, UniProt P05979)
T1 sequence (P05979 25-600): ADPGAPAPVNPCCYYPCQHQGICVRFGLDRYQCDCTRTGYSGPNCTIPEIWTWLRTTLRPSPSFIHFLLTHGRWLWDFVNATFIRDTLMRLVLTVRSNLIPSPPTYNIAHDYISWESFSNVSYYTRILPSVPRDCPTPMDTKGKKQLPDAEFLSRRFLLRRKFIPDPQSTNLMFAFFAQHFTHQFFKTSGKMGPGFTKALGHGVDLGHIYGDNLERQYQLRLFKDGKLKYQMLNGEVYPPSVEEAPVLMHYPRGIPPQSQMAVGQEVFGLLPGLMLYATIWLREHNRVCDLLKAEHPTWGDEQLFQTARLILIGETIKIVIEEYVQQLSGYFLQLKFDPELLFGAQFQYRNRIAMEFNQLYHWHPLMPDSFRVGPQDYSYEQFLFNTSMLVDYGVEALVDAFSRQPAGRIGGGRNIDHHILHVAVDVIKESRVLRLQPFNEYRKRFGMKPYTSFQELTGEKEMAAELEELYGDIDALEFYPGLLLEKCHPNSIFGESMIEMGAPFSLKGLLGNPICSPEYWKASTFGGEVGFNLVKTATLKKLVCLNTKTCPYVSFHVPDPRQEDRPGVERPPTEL
Settings: Resch, et al., J. Nat. Prod., 61, 347-350 (1998)

CC(C)=CCCC1(C)C=Cc2cc(O)cc(C)c2O1 (stereo not shown) [atractylochromene]
inhibitory effects on COX-1 activity (in words): significant COX-1 inhibitory effects
